The source of these data is ChEMBL document CHEMBL1201862, “PubChem BioAssay data set” (2004).

The target in data set [1] is T1, Cytochrome P450 1A2 (Homo sapiens, UniProt P05177).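 Also: PubChem cytochrome P450 panel assay, CYP1A2 panel member.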
T1 sequence (P05177 whole entry): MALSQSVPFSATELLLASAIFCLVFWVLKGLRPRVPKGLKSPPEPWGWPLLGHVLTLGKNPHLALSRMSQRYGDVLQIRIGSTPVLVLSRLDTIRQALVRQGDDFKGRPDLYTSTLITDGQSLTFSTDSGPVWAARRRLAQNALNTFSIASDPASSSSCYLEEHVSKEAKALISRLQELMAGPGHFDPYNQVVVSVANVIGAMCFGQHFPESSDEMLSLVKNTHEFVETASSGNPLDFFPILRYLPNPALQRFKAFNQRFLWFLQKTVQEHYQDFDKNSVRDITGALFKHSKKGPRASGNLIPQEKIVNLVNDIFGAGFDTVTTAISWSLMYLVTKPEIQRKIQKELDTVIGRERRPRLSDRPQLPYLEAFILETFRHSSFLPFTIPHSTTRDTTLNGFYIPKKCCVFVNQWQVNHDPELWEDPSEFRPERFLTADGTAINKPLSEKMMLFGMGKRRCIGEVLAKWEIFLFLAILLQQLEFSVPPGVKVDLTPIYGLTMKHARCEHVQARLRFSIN

In data set [2] the target is Cytochrome P450 2C19 (Homo sapiens, UniProt P33261). Description: Cytochrome panel assay with activity outcomes. Panel member name: p450-cyp2c19 Compounds with AC50 equal or less than 10 uM are considered active. The format is functional.
The target in data set [3] is Cytochrome P450 2D6 (Homo sapiens, UniProt P10635).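 Also: CYP2D6 member of a cytochrome P450 panel assay.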
Data set [4] has as its target Cytochrome P450 3A4 (Homo sapiens, UniProt P08684).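 Also: CYP3A4 tested as one member of a cytochrome P450 panel screen.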
The target of data set [5] is Cytochrome P450 2C9 (Homo sapiens, UniProt P11712).
The target of data set [6] is T2, Heat shock factor protein 1 (Mus musculus, UniProt P38532).
T2 sequence (P38532 whole entry): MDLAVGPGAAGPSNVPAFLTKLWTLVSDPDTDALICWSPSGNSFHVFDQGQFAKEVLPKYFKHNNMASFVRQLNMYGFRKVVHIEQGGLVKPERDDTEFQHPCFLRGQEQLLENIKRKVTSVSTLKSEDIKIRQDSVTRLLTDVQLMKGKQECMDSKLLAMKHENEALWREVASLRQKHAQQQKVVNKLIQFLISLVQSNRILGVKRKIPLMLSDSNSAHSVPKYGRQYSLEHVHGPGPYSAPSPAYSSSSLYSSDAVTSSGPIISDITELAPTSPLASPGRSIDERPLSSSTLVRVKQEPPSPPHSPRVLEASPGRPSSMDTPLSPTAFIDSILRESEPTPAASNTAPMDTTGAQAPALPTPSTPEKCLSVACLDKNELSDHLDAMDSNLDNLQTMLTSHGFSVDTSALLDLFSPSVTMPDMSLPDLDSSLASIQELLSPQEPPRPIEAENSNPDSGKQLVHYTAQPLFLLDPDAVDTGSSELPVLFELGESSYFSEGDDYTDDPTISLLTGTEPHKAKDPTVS
Description: inhibition of MG132-induced HSE-luciferase signal, confirmation, cell-based, NIH3T3, luminescence, dose retest (AID 2382).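 Also: NIH3T3 fibroblasts with HSF1-driven luciferase reporter stressed by proteasome inhibitor MG132; luminescence from HSF1-driven luciferase expression after 8 hours of MG132 stress.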 The format is functional.

The source made the active and inactive calls.

Cytochrome P450 3A4, sequence (P08684 whole entry): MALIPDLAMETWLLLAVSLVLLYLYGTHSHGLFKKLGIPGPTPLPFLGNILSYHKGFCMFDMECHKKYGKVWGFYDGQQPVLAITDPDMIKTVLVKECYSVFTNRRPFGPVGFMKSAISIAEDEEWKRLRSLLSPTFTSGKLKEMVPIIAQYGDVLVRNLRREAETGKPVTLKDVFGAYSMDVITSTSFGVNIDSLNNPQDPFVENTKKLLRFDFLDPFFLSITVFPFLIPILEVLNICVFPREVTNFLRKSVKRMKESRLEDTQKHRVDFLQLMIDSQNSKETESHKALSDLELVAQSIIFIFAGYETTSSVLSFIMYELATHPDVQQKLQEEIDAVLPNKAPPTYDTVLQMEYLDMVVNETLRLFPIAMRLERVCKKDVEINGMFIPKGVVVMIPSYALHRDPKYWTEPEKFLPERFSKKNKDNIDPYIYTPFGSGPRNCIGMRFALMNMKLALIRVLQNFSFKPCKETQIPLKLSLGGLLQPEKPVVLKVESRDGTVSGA
Cytochrome P450 2C19, sequence (P33261 whole entry): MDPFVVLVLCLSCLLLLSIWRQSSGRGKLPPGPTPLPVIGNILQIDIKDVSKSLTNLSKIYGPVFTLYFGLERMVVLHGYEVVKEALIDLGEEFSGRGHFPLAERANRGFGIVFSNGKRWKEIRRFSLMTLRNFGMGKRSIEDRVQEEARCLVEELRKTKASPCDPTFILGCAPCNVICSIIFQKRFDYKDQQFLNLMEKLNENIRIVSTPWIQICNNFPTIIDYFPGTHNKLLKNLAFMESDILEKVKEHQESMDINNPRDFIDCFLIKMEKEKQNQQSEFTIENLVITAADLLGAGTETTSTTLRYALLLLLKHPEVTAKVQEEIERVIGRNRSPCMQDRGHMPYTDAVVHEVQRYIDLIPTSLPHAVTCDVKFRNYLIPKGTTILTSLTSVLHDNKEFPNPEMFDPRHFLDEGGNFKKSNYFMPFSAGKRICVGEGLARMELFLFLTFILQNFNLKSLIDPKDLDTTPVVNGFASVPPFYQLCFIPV
Cytochrome P450 2C9, sequence (P11712 whole entry): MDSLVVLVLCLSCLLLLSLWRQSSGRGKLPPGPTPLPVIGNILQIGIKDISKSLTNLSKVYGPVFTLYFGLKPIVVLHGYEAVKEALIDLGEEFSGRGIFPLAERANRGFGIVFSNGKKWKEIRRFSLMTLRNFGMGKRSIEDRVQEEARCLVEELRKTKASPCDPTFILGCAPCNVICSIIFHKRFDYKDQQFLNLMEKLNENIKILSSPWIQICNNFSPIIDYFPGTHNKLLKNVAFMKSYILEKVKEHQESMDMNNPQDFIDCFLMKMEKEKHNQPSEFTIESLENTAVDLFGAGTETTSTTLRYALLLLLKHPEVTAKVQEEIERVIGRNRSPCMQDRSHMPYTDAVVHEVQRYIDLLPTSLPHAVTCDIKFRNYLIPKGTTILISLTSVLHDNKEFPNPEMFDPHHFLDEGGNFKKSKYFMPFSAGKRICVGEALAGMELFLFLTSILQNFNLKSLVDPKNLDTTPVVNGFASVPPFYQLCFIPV
Cytochrome P450 2D6, sequence (P10635 whole entry): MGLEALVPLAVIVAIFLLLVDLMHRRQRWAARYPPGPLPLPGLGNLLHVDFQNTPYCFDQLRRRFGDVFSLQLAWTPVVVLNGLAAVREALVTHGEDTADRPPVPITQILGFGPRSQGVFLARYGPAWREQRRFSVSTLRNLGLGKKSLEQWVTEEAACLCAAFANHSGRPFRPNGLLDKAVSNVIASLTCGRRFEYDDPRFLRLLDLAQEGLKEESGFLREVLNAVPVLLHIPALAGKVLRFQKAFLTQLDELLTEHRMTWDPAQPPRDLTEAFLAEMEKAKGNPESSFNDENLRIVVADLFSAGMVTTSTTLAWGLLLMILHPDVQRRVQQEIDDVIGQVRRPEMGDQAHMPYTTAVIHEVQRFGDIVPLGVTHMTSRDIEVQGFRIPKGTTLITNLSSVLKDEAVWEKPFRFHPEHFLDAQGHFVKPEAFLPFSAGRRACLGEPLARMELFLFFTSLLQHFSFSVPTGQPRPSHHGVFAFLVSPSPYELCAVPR

On to `c1cncc(CNc2nc(-c3cccnc3)nc3ccccc23)c1`, for which the values for the concentration at half-maximal activity (AC50) in data set [1], in data set [2] (read-out: AC50) and in data set [3] were 0.316 µM (active), 39.8 µM (inconclusive) and 20 µM (inconclusive), respectively.
Consider `CCNc1ncc2nc(C)c(=O)n(C)c2n1`, for which the AC50 in data set [3] is 39.8 µM (inconclusive).
With `COc1ccc(/C=N\c2c(O)ccc3ccccc23)cc1OC`, the values for the AC50 in data set [4] and in data set [2] (read-out: AC50) were 6.31 µM (inconclusive) and 5.01 µM (inconclusive), respectively.
On to `O=C(C[C@@H](c1ccccc1)N1CCCCC1)c1ccccc1`, for which the concentration at half-maximal activity (AC50) in data set [5] is 3.16 µM (inconclusive).
`O=C(CC1CCCCC1)N1CCC(c2nc(-c3ccc(S(=O)(=O)N4CCCC4)cc3)no2)CC1`: the AC50 in data set [4] is 14.1 µM (inconclusive).
`COc1ccc(-c2nc3cnc(N4CCNCC4)nc3n(CCc3ccccc3)c2=O)cc1`: the half-maximal activity concentration (AC50) in data set [1] is 15.8 µM (inconclusive); in data set [4], 20 µM (inconclusive); in data set [2] (read-out: AC50), 39.8 µM (inconclusive); in data set [3] it was 15.8 µM (inconclusive).
On to `O=C(Nc1ccc(Cl)cc1)C1CCCN1C(=O)NCc1ccccc1` (stereo not given), for which, in data set [6], the EC50 is listed as > 195 µM (not active).
With `C[C@@H](C(=O)O)[C@@H]1C[C@@]1(C)[C@@H](NC(=O)OCc1ccccc1)c1ccccc1`, the AC50 in data set [4] is 15.8 µM (inconclusive).
As to `COc1ccc(O[C@H]2C=C[C@@H](c3ccccc3)O[C@H]2COC(=O)CC/C(C)=N/OCC[C@@H]2C=C[C@H](OC(C)=O)[C@H](COC(C)=O)O2)cc1`, the AC50 in data set [3] was 0.794 µM (inconclusive).
As for `Cc1cc(NC(=O)Cn2ccc([N+](=O)[O-])n2)no1`, in data set [6], the EC50 is recorded as > 195 µM (not active).
Same read-out and setting: under `Cc1cc(=O)oc2c(C)c(OC(C)C(=O)NCCCN3CCOCC3)ccc12` (stereo not given) stands > 195 µM (not active).
Turning to `C[C@@H](C(=O)O)[C@H]1C[C@]1(C)[C@H](NC(=O)OCc1ccccc1)c1ccccc1`, the concentration at half-maximal activity (AC50) in data set [4] was 12.6 µM (inconclusive).
As to `O=C(O)/C=C\C(=O)Nc1ccc2c(c1)-c1ccccc1C2`, the AC50 in data set [1] is 1 µM (inconclusive); in data set [4] it was 3.98 µM (inconclusive).
With `COc1cc(/C=C/C(=O)Nc2ccccc2C(F)(F)F)cc(OC)c1OC`, the AC50 in data set [1] was 28.2 µM (inconclusive); in data set [4], 14.1 µM (inconclusive); in data set [2] (read-out: AC50) it was 17.8 µM (inconclusive).
For the compound `CCc1ccc(N/C(SCc2ccccc2C)=C(/C#N)C(=O)NCc2ccco2)cc1`, the results for the AC50 in data set [1] and in data set [3] were 7.08 µM (inconclusive) and 15.8 µM (inconclusive), respectively.
In the case of `COC(=O)N1CCC2(CCN(C(=O)Nc3ccc(OC)cc3)CC2)CC1`, the AC50 in data set [1] was 25.1 µM (inconclusive); in data set [3] it was 39.8 µM (inconclusive).
On to `O=C(NNS(=O)(=O)c1ccc(Cl)cc1)c1cnn(-c2ccccc2)c1-n1cccc1`, for which the concentration at half-maximal activity (AC50) in data set [4] is 25.1 µM (inconclusive).
Turning to `CC(C)OC(=O)c1nnn(-c2nonc2N)c1CSc1ccccn1`, the half-maximal activity concentration (AC50) in data set [3] is 15.8 µM (inconclusive).
On to `Cn1cccc1C(=O)N1CCC[C@@]2(CCN(C(=O)Nc3cccc(C#N)c3)C2)C1`, for which the concentration at half-maximal activity (AC50) in data set [4] was 25.1 µM (inconclusive).
As to `c1ccc(CN2CCCC3(CCNCC3)C2)cc1`, the concentration at half-maximal activity (AC50) in data set [3] is 12.6 µM (inconclusive).
For `CC(C)c1ccc2oc(=O)cc(CN3CCCCC3)c2c1`, the EC50 in data set [6] is > 195 µM (not active).
In the case of `CCCc1nc2sc3ccccc3c(=O)c2c(=O)n1CCOC`, the AC50 was 35.5 µM (inconclusive) in data set [4] and 39.8 µM (inconclusive) in data set [2] (read-out: AC50).
Turning to `CCc1nnc(NC(=O)CSc2nc(C)c3c(c2C#N)CCCC3)s1`, the EC50 in data set [6] is > 195 µM (not active).
As to `CCN(CC)C[C@@H](O)c1ccc2ccc3ccccc3c2c1`, the AC50 in data set [3] was 3.16 µM (inconclusive).
For the compound `COc1cccc(-c2ccc3ncnc(NC4CCNCC4)c3c2)c1`, the concentration at half-maximal activity (AC50) in data set [4] was 31.6 µM (inconclusive).
Regarding `Cc1ccc(-c2nc3ccccc3s2)cc1NC(=S)NC(=O)c1ccccc1`, the half-maximal activity concentration (AC50) in data set [1] was 15.8 µM (inconclusive); in data set [4], 14.1 µM (inconclusive); in data set [2] (read-out: AC50), 22.4 µM (inconclusive).
`CCCCN(C(=O)NC(=O)Nc1ccccc1OCC)S(C)(=O)=O`: the AC50 in data set [5] was 8.91 µM (inconclusive).
Turning to `Fc1ccc(-n2cc(CNCCc3ccccn3)c(-c3ccccc3Cl)n2)cc1`, the EC50 in data set [6] is listed as > 195 µM (not active).
For the compound `CC(C)C[C@H]1C(=O)N2CCC[C@@H]2[C@]2(O)O[C@](NC(=O)[C@@H]3C=C4c5cccc6[nH]c(Br)c(c56)C[C@H]4N(C)C3)(C(C)C)C(=O)N12`, the half-maximal activity concentration (AC50) in data set [5] was 10 µM (inconclusive).
As for `CCC(=O)N(CCC(c1ccco1)c1ccccc1OC)Cc1cccs1` (stereo not given), the EC50 in data set [6] is reported as > 195 µM (not active).
As for `CC(=O)OC[C@@H]1O[C@H](C/C=N\OC[C@@H](C)[C@H](OCc2ccccc2)C(C)C)C=C[C@@H]1OC(C)=O`, in data set [5], the concentration at half-maximal activity (AC50) was 6.31 µM (inconclusive).
For the compound `COC(=O)[C@@]1(Cc2ccc(F)cc2)[C@H]2c3cc(C(=O)N(C)C)n(Cc4ccc(C(F)(F)F)nc4)c3C[C@H]2CN1C(=O)c1ccccc1`, the AC50 in data set [3] is 20 µM (inconclusive).
In the case of `COc1ccc(-c2nn(-c3ccccc3)cc2/C=C(\CC(=O)O)c2nc3ccccc3s2)cc1OC`, the EC50 in data set [6] is > 195 µM (not active).
Regarding `CC(C)(C)N(NC(=O)c1ccccc1)C(=O)c1cccc(C(=O)N(NC(=O)c2ccccc2)C(C)(C)C)c1`, the AC50 in data set [4] is 3.98 µM (inconclusive); in data set [2], “inconclusive”.
For `c1ccc(CNc2ncncc2-c2cccnc2)cc1`, the concentration at half-maximal activity (AC50) in data set [3] was 39.8 µM (inconclusive).
Take `O=C(CC(Nc1ccccc1Cl)C(=O)OCC(=O)c1cccs1)c1ccccc1` (stereo not given): the concentration giving a half-maximal response (EC50) in data set [6] was 0.847 µM (active).
For `O=C(CSc1nnc(COc2ccccc2)n1-c1ccccc1)c1ccccc1`, the AC50 was 28.2 µM (inconclusive) in data set [1] and 31.6 µM (inconclusive) in data set [3].
On to `O=C(Nc1ccc(F)cc1F)c1cc2nc3c(c(C(F)(F)F)n2n1)CCCC3`, for which the EC50 in data set [6] is < 0.16 µM (active).
For the compound `COc1cccc(Nc2ncc3nc(CCc4ccccc4)c(=O)n(C4CC4)c3n2)c1`, the half-maximal activity concentration (AC50) is 5.01 µM (inconclusive) in data set [1] and 10 µM (inconclusive) in data set [4].
In the case of `CN1CCN(c2ncncc2-c2ccoc2)CC1`, the concentration at half-maximal activity (AC50) in data set [1] was 31.6 µM (inconclusive); in data set [2] it was “inconclusive”; in data set [3] it was 31.6 µM (inconclusive).
`O=C(c1csnn1)N1CCC2(CC1)CN(c1cccc(-c3ccccc3)c1)C2`: the AC50 in data set [4] is 39.8 µM (inconclusive); in data set [3] it was 10 µM (inconclusive).
As to `COC(=O)[C@@]1(Cc2ccc(F)cc2)[C@H]2c3cc(C(=O)N(C)C)n(Cc4ccc(C)o4)c3C[C@H]2CN1C(=O)c1ccccc1`, in data set [3], the AC50 was 39.8 µM (inconclusive).
Turning to `O=C(CCN1C(=O)/C(=C/c2ccc(F)cc2)SC1=S)NCCCn1ccnc1`, in data set [6], the EC50 was > 195 µM (not active).
On to `CCN(Cc1ccccc1)S(=O)(=O)c1ccc(F)cc1`, for which the EC50 in data set [6] is recorded as > 195 µM (not active).
As to `C[C@@H](C(=O)NCc1nc2ccccc2[nH]1)[C@@H]1C[C@@]1(C)[C@@H](NC(=O)OCc1ccccc1)c1ccccc1`, the half-maximal activity concentration (AC50) in data set [1] is 12.6 µM (inconclusive); in data set [3] it was 15.8 µM (inconclusive).
As for `CC(NC(=O)Cn1cnc([N+](=O)[O-])n1)c1ccccc1` (stereo not given), the concentration at half-maximal activity (AC50) in data set [5] was 35.5 µM (inconclusive).
`Cn1cc(/C=N/n2cnc3scc(-c4ccccc4)c3c2=O)c2ccccc21`: in data set [4], the concentration at half-maximal activity (AC50) is 3.98 µM (inconclusive).
Regarding `O=C(CN1CCN(Cc2ccccc2)CC1)N/N=C\C=C/c1ccco1`, the half-maximal effective concentration (EC50) in data set [6] was > 195 µM (not active).
On to `Cc1oc(/C=N/NC(=O)CC2(C)OCCO2)cc1Br`, for which the half-maximal effective concentration (EC50) in data set [6] was > 195 µM (not active).
Take `O=C(N/N=C(\c1ccccc1)c1cccnc1)C(O)(c1ccccc1)c1ccccc1`: the half-maximal activity concentration (AC50) in data set [5] was 0.794 µM (inconclusive).
For `Cc1ccc(-c2n[nH]cc2/C=N/n2c(C)nc3ccccc3c2=O)cc1`, the concentration for a half-maximal effect (EC50) in data set [6] is on record as > 195 µM (not active).
On to `C/C(Cc1ccccc1)=N\NC(=O)CNC(=O)Cc1ccc(Cl)cc1`, for which, in data set [6], the EC50 is recorded as > 195 µM (not active).
For the compound `Clc1ccc(/C=N/c2c(-c3ccc(Cl)cc3)nc3n2CCS3)cc1`, the AC50 in data set [5] was 10 µM (inconclusive).
On to `[H]/N=C(\N/C(=N/[H])Nc1ccc(Cl)cc1)NC(C)C` [PROGUANIL], for which, in data set [3], the AC50 is 10 µM (inconclusive).

A word on the AC50: it is the concentration giving half of the maximal activity seen. Broadly, the EC50 is the concentration giving half of the maximal effect.
